# Assay: Clarity, pH and aging stability of aqueous SnF2/STPP solutions
# Format: physicochemical
# Details: 2% stannous fluoride solution without STPP
# Procedure: The solutions are then further mixed at room temperature until a clear solution forms. All of the solutions contain 2% SnF2.
# The solutions with a P:Sn molar ratio spanning from 1 to 15 containing 2% SnF2 are aged overnight at room temperature.
# A different set of solutions with a P:Sn molar ratio of 2 and 5 are placed in a 50° C. oven for eight weeks.
smiles,measurement,value
[F][Sn][F] [stannous fluoride],Appearance after dissolution,precipitate almost immediately after dissolution
